Assay results published in patent US12226409B2, “Treatment of hepatocellular carcinoma” (Eisai R&D Management Co., Ltd., priority 2017, dated 2025).

Experiments:
CYP1A2 = target: T1, CYP1A2 (Homo sapiens, UniProt P05177); test: In vitro CYP inhibition; type: in vitro ADME
T1 sequence (P05177 1-516): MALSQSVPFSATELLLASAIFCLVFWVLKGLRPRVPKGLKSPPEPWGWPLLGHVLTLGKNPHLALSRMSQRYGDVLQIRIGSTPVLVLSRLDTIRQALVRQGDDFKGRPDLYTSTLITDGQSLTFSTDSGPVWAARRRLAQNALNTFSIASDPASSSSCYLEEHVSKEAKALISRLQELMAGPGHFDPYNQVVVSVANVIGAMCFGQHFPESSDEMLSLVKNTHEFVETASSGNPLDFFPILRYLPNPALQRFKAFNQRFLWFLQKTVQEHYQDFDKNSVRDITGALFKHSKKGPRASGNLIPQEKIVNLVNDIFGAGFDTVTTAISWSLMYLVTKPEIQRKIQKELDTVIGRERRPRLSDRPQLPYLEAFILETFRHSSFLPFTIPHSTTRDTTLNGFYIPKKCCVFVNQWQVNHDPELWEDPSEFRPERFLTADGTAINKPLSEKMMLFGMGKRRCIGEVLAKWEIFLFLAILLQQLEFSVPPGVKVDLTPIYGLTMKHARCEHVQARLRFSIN

CYP2D6 = CYP2D6 (Homo sapiens, UniProt P10635); test: In vitro CYP inhibition; type: in vitro ADME
CYP2D6, sequence (P10635 whole entry): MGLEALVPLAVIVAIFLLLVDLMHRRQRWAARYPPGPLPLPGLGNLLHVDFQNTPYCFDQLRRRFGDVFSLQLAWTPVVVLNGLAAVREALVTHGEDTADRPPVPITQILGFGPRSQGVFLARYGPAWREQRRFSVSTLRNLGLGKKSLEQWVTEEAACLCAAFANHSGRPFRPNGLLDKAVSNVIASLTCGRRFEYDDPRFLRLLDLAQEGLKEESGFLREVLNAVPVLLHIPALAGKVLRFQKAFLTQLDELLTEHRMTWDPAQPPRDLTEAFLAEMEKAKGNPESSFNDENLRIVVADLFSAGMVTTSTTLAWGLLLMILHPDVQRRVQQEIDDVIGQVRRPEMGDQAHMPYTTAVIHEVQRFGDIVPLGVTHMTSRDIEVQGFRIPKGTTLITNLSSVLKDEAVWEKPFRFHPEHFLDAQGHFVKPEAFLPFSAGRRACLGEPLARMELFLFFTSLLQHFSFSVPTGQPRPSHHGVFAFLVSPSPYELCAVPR

COc1cc2nccc(Oc3ccc(NC(=O)NC4CC4)c(Cl)c3)c2cc1C(N)=O [Lenvatinib, 4-(3-chloro-4(cyclopropylaminocarbonyl)aminophenoxy)-7-methoxy-6-quinolinecarboxamide]
inhibition of CYP1A2 (CYP1A2): inhibits
inhibition of CYP2D6 (CYP2D6): inhibits
